Key:
[1] = system: Arabidopsis T1 plants transformed with 24DT11 nucleotide sequence; experiment: Herbicide resistance effect test of transgenic Arabidopsis T1 plants (spray); type: in vivo, Arabidopsis thaliana; settings: genotype 24DT11
Text: (§1) 24DT11 gene was used to transform Arabidopsis for the first time. At first, T1 transformants were selected from the background of un-transformed seeds, using glufosinate-ammonium selection scheme. About 20000 T1 seeds are screened among which 282 strains of T1 generation positive transformants (PAT gene) were identified, i.e. the transformation efficiency was about 1.4%. Herbicide resistance effect tests to 2,4-D dimethyl ammonium salt and agroxone of Arabidopsis T1 plants transformed with 24DT11 nucleotide sequence, control nucleotide sequence respectively and wild-type Arabidopsis plants were performed after 18 days of planting.
(§2) Arabidopsis T1 plants transformed with 24DT11 nucleotide sequence, control nucleotide sequence respectively and wild-type Arabidopsis plants were sprayed with 2,4-D dimethyl ammonium salt (560 g ae/ha, 1-fold concentration in field), agroxone (560 g ae/ha, 1-fold concentration in field) and blank solvent (water). Resistance conditions of the plants were counted 7 days and 14 days after spraying. Plants with growth conditions consistent with blank solvent (water) 7 days after spaying were classified as highly resistant plants; Plants with curly rosette leaves 7 days after spaying were classified as moderately resistant plants; Plants incapable of bolting 14 days after spaying were classified as low-resistant plants and the dead plants 14 days after spaying were classified as non-resistant plants. Because each Arabidopsis T1 plant is an independent transformation event, significant differences of individual T1 responses can be expected under a given dose.

[2] = system: Arabidopsis T1 plants transformed with control nucleotide sequence; experiment: Herbicide resistance effect test of Arabidopsis T1 plants with control sequence (spray); type: in vivo, Arabidopsis thaliana; settings: genotype Control, 560 g ae/ha
Text: as §1, §2

[3] = system: wild-type Arabidopsis plants; experiment: Herbicide resistance effect test of wild-type Arabidopsis (spray); type: in vivo, Arabidopsis thaliana; settings: genotype Wild, 560 g ae/ha
Text: as §1, §2

[4] = system: Soybean plants containing 24DT11 nucleotide sequence (S1, S2 and S3); experiment: Herbicide-resistance effect of transgenic soybean plants (spray, damage degree); type: in vivo; settings: for Average damage % 6HAT: 6 hours after spraying; for Average damage % 2DAT: 2 days after spraying; for Average damage % 7DAT: 7 days after spraying; for Average damage % 14DAT: 14 days after spraying
Description: (§3) Herbicide resistance effects tests to 2,4-D dimethyl ammonium salt and agroxone of soybean plants containing 24DT11 nucleotide sequence and control nucleotide sequence respectively and wild type soybean plants (stages V3-V4) were performed respectively.
(§4) Soybean plants containing 24DT11 nucleotide sequence, control nucleotide sequence and wild type soybean plants were taken and spayed with 2,4-D dimethyl ammonium salt (2240 g ae/ha, four-folds concentration in field), agroxone (2240 g ae/ha, four-folds concentration in field) and blank solvent (water). Take statistics of the damage degree of each plant caused by herbicides according to the curling degree of leaves and the damage degree of growing point six hours ([…]), two days (2DAT), seven days (7DAT) and 14 days (14DAT) after spraying respectively: if leaves are flat like wild-type leaves and the growing point is intact, the damage degree is 0%; if leaves curl up and wilt and the growing point is died, the damage degree is 100%. There are three strains contained a transferred 24DT11 nucleotide sequence (S1, S2 and S3), two strains contained a transferred control sequence (S4 and S5) and one wild-type strain (CK1) in total; select 10˜15 plants from each strain for testing.

[5] = system: Soybean plants containing control nucleotide sequence (S4 and S5); experiment: Herbicide-resistance effect of soybean plants with control sequence (spray, damage degree); type: in vivo; settings: 2240 g ae/ha; for Average damage % 6HAT: 6 hours after spraying; for Average damage % 2DAT: 2 days after spraying; for Average damage % 7DAT: 7 days after spraying; for Average damage % 14DAT: 14 days after spraying
Description: as §3, §4

[6] = system: wild type soybean plants (CK1); experiment: Herbicide-resistance effect of wild type soybean (spray, damage degree); type: in vivo; settings: wild-type soybean strain CK1, 2240 g ae/ha
Description: as §3, §4

[7] = system: Corn plants containing 24DT11 nucleotide sequence (S6, S7 and S8); experiment: Herbicide-resistance effect test of transgenic corn plants (spray, prop root development); type: in vivo; settings: 21 days after spraying
Description: (§5) Herbicide resistance effects tests to 2,4-D dimethyl ammonium salt and agroxone of corn plants containing 24DT11 nucleotide sequence, control nucleotide sequence respectively and wild type corn plants (stages V3-V4) were performed respectively.
(§6) Corn plants containing 24DT11 nucleotide sequence, control nucleotide sequence respectively and wild type corn plants were taken and spayed with 2,4-D dimethyl ammonium salt (8960 g ae/ha, 16-folds concentration in field), agroxone (8960 g ae/ha, 16-folds concentration in field) and blank solvent (water) respectively. Prop root development was counted 21 days after spaying. Three strains (S6, S7 and S8) of corn plants transformed with 24DT11 nucleotide sequence, two strains (S9 and S10) of corn plants transformed with control nucleotide sequence and 1 strain of wild type (CK2) corn were selected and 10-15 plants from each stain were tested.

[8] = system: Corn plants containing control nucleotide sequence (S9 and S10); experiment: Herbicide-resistance effect test of corn plants with control sequence (spray, prop root development); type: in vivo; settings: 8960 g ae/ha, 21 days after spraying
Description: as §5, §6

[9] = system: wild type corn plants (CK2); experiment: Herbicide-resistance effect test of wild type corn (spray, prop root development); type: in vivo; settings: wild type corn strain CK2; 8960 g ae/ha; 21 days after spraying
Description: as §5, §6

[10] = curly rosette leaves 7 days after spraying
[11] = growth consistent with blank solvent 7 days after spraying
[12] = incapable of bolting 14 days after spraying
[13] = soybean strain S1 (24DT11), 2240 g ae/ha
[14] = soybean strain S2 (24DT11), 2240 g ae/ha
[15] = soybean strain S3 (24DT11), 2240 g ae/ha
[16] = soybean strain S4 (control sequence)
[17] = soybean strain S5 (control sequence)
[18] = corn strain S6 (24DT11), 8960 g ae/ha
[19] = corn strain S7 (24DT11), 8960 g ae/ha
[20] = corn strain S8 (24DT11), 8960 g ae/ha
[21] = corn strain S9 (control sequence)
[22] = corn strain S10 (control sequence)

Cc1cc(Cl)ccc1OCC(=O)O [agroxone]
High resistant (number of plants) ([1]; 560 g ae/ha (1-fold field concentration), growth consistent with blank solvent 7 days after spraying): 22
Moderate resistant (number of plants) ([1]; 560 g ae/ha, curly rosette leaves 7 days after spraying): 4
Non-resistant (number of plants) ([1]; 560 g ae/ha, dead 14 days after spraying): 3
Low resistant (number of plants) ([1]; 560 g ae/ha, incapable of bolting 14 days after spraying): 2
Moderate resistant (number of plants) [2, 10]: 0
Non-resistant (number of plants) ([2]; dead 14 days after spraying): 32
High resistant (number of plants) [2, 11]: 0
Low resistant (number of plants) [2, 12]: 0
Moderate resistant (number of plants) [3, 10]: 0
Non-resistant (number of plants) ([3]; dead 14 days after spraying): 32
High resistant (number of plants) [3, 11]: 0
Low resistant (number of plants) [3, 12]: 0
Average damage % 6HAT ([4]; soybean strain S1 (24DT11), 2240 g ae/ha (4-fold field)): 12%
Average damage % 2DAT [4, 13]: 7%
Average damage % 7DAT [4, 13]: 0%
Average damage % 14DAT [4, 13]: 0%
Average damage % 6HAT [4, 14]: 9%
Average damage % 2DAT [4, 14]: 5%
Average damage % 7DAT [4, 14]: 0%
Average damage % 14DAT [4, 14]: 0%
Average damage % 6HAT [4, 15]: 19%
Average damage % 2DAT [4, 15]: 12%
Average damage % 7DAT [4, 15]: 7%
Average damage % 14DAT [4, 15]: 4%
Average damage % 6HAT [5, 16]: 38%
Average damage % 2DAT [5, 16]: 69%
Average damage % 7DAT [5, 16]: 87%
Average damage % 14DAT [5, 16]: 100%
Average damage % 6HAT [5, 17]: 47%
Average damage % 2DAT [5, 17]: 74%
Average damage % 7DAT [5, 17]: 92%
Average damage % 14DAT [5, 17]: 100%
Average damage % 6HAT ([6]; 6 hours after spraying): 34%
Average damage % 2DAT ([6]; 2 days after spraying): 61%
Average damage % 7DAT ([6]; 7 days after spraying): 82%
Average damage % 14DAT ([6]; 14 days after spraying): 100%
Normal development of brace roots (number of plants) ([7]; corn strain S6 (24DT11), 8960 g ae/ha (16-fold field)): 11
Abnormal development of brace roots (number of plants) [7, 18]: 0
Proportion of normal development of brace roots [7, 18]: 100.00%
Abnormal development of brace roots (number of plants) [7, 19]: 0
Normal development of brace roots (number of plants) [7, 19]: 11
Proportion of normal development of brace roots [7, 19]: 100.00%
Abnormal development of brace roots (number of plants) [7, 20]: 0
Normal development of brace roots (number of plants) [7, 20]: 12
Proportion of normal development of brace roots [7, 20]: 100.00%
Abnormal development of brace roots (number of plants) [8, 21]: 14
Normal development of brace roots (number of plants) [8, 21]: 0
Proportion of normal development of brace roots [8, 21]: 0%
Abnormal development of brace roots (number of plants) [8, 22]: 12
Normal development of brace roots (number of plants) [8, 22]: 0
Proportion of normal development of brace roots [8, 22]: 0%
Abnormal development of brace roots (number of plants) [9]: 15
Normal development of brace roots (number of plants) [9]: 0
Proportion of normal development of brace roots [9]: 0%
